Legend:
Splenocytes = assay: Splenic cell proliferation assay (anti-IgM stimulated); assay type: cell-based; conditions: Splenocyte; CD1 mouse splenocytes, 1 h pre-treatment, 2.5 ug/ml anti-IgM F(ab')2 for 72 h, Cell Titer-Glo; read-out: EC50 (inhibition of splenic cell proliferation)
Procedure: Proliferation of splenocytes in response to anti-IgM can be blocked by inhibition of Btk.
Splenocytes were obtained from 6 week old male CD1 mice (Charles River Laboratories Inc.). Mouse spleens were manually disrupted in PBS and filtered using a 70 um cell strainer followed by ammonium chloride red blood cell lysis. Cells were washed, resuspended in Splenocyte Medium (HyClone RPMI supplemented with 10% heat-inactivated FBS, 0.5× non-essential amino acids, 10 mM HEPES, 50 uM beta mercaptoethanol) and incubated at 37° C., 5% CO2 for 2 h to remove adherent cells. Suspension cells were seeded in 96 well plates at 50,000 cells per well and incubated at 37° C., 5% CO2 for 1 h. Splenocytes were pre-treated in triplicate with 10,000 nM curves of Formula 1 compounds for 1 h, followed by stimulation of cell proliferation with 2.5 ug/ml anti-IgM F(ab′)2 (Jackson ImmunoResearch) for 72 h. Cell proliferation was measured by Cell Titer-Glo Luminescent Assay (Promega). EC50 values (50% proliferation in the presence of compound as compared to vehicle treated controls) were calculated from dose response compound curves using GraphPad Prism Software EC50 values are reported in Table 3: […]

[1] = test system: TMD-8 human activated B cell diffuse large B cell lymphoma cells; assay: TMD-8 survival assay; assay type: cell-based; conditions: TMD8, TMD-8 cells, 72 h treatment, Cell Titer-Glo
Procedure: BTK inhibitors affect the survival of B-cell lymphomas. TMD-8 human activated B cell diffuse large B cell lymphoma cells were seeded in 96-well plates at a density of 20,000 cells/well in HyClone RPMI supplemented with 10% FBS (Fisher)/1% Penicillin/Streptomycin (HyClone) and incubated at 37° C., 5% CO2. Cells were treated in triplicate with 1,000 nM or 100 nM curves of compounds for 72 h. Cell survival was measured by Cell Titer-Glo Luminescent Assay (Promega). EC50 values (50% proliferation in the presence of compound as compared to vehicle treated controls) were calculated from dose response compound curves using GraphPad Prism Software.

human BTK kinase (hBTK) = target: T1, human BTK kinase (hBTK) (Homo sapiens, UniProt Q06187); assay: BTK kinase inhibition assay (Kinase Profiler radiometric protein kinase assay, Eurofins); assay type: biochemical; conditions: radiometric [γ-33P-ATP] assay, 40 minutes at room temperature, 250 μM substrate
T1 construct: purchased Eurofins Pharma Discovery Services UK Limited (contract assay, Kinase Profiler)
Procedure: In vitro potency of selected compound was defined against human BTK kinase (hBTK) using Kinase Profiler radiometric protein kinase assays performed at Eurofins Pharma Discovery Services UK Limited.
hBTK kinase is diluted in buffer and all compounds were prepared to 50× final assay concentration in 100% DMSO. This working stock of the compound was added to the assay well as the first component in the reaction, followed by the remaining components as detailed in the assay protocol listed above. The reaction was initiated by the addition of the MgATP mix. The kinase reaction was performed at room temperature for 40 minutes in presence of 250 μM substrate, 10 mM MgAcetate, [γ-33P-ATP] (specific activity approx. 500 cpm/pmol, concentration as required) and variable test article concentrations. The ATP concentrations in the assays were with 15 μM of the apparent. The reaction was stopped by the addition of 3% phosphoric acid solution. 10 μL of the reaction is then spotted onto a P30 filtermat and washed three times for 5 minutes in 75 mM phosphoric acid and once in methanol prior to drying and scintillation counting. In addition positive control wells contain all components of the reaction, except the compound of interest; however, DMSO (at a final concentration of 2%) were included in these wells to control for solvent effects as well as blank wells contain all components of the reaction, with a reference inhibitor replacing the compound of interest. This abolishes kinase activity and establishes the base-line (0% kinase activity remaining).

BTK = BTK (Homo sapiens, UniProt Q06187); assay: BTK enzyme off-rate determination (dilution kinetic experiments); assay type: biochemical; conditions: 10-30 nM compound pre-incubated with 7 nM enzyme, 1000 uM ATP, 1 h, diluted 250×, monitored 8 h
Procedure: 10-30 nM compound was pre-incubated with 7 nM enzyme in the presence of 1000 uM ATP for 1 h. The [I]-[E] complex was diluted 250× into an assay buffer with 1000 uM ATP and 2uM substrate peptide. Enzyme activity in the diluted samples was monitored in real time assay over period of 8 h. The progress curves were fit with time dependent equation to determine apparent Kobs and residence time of the compound. […] Consistent with covalent inhibition of BTK.

T1 sequence (Q06187 whole entry): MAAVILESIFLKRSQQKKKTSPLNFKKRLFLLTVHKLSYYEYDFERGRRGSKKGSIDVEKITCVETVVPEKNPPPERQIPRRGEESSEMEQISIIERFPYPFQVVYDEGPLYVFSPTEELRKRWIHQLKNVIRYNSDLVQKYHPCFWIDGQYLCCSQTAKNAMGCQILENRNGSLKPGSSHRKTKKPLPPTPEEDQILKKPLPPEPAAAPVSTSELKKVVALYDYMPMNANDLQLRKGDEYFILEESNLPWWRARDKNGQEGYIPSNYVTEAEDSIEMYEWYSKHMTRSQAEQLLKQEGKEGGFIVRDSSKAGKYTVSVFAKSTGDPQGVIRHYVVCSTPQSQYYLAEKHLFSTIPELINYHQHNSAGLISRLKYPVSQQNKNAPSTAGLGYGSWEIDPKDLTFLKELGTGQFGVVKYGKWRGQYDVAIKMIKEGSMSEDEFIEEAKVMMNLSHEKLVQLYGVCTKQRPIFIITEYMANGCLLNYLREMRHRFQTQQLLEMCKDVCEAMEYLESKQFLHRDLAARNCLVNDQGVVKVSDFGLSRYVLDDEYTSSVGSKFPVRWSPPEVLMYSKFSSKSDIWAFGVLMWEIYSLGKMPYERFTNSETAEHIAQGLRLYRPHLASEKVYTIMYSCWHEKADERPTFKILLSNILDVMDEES
Chain of BTK (Q06187 whole entry): as above

| SMILES | EC50 (Splenocytes) [nM] | EC50 [1] [nM] | IC50 (human BTK kinase (hBTK)) [nM] | Residence time half life (1/Kobs) (BTK) [h] | residence time (BTK; read-out: Residence time half life (1/Kobs)) [min] |
| --- | --- | --- | --- | --- | --- |
| C=C(C)C(=O)N1CCC[C@@H]1Cn1nc(-c2ccc(Oc3cc(F)cc(OCc4cnc(C)nc4)c3)cc2)c2c(N)ncnc21 [Compound 4] | > 100 | > 100 | 125 | – | – |
| CC#CC(=O)N1CCC[C@@H]1Cn1nc(-c2ccc(Oc3cc(F)cc(OCc4cnc(C)nc4)c3)cc2)c2c(N)ncnc21 [Compound 5] | 7.8 | 48.8 | 126 | – | – |
| C=CC(=O)N(C)[C@H]1C[C@@H](n2nc(-c3ccc(Oc4cc(F)cc(OCc5cnc(C)nc5)c4)cc3)c3c(N)ncnc32)C1 [Compound 31] | 1.4 | 8.9 | 10 | – | – |
| CC#CC(=O)N1CCC(n2nc(-c3ccc(Oc4cc(F)cc(OCc5cnc(C)nc5)c4)cc3)c3c(N)ncnc32)CC1 [Compound 26] | 4.6 | 18.1 | 24 | – | – |
| Cc1ncc(COc2cc(F)cc(Oc3ccc(-c4nn(C[C@H]5CCCN5C#N)c5ncnc(N)c45)cc3)c2)cn1 [Compound 1] | 12.2 | 34.7 | 76 | – | – |
| CC#CC(=O)N1CC[C@@H](n2nc(-c3ccc(Oc4cc(F)cc(OCc5cnc(C)nc5)c4)cc3)c3c(N)ncnc32)C1 [Compound 17] | 6.9 | 14.5 | 19 | – | – |
| C=CS(=O)(=O)N1CCC[C@@H](n2nc(-c3ccc(Oc4cc(F)cc(OCc5cnc(C)nc5)c4)cc3)c3c(N)ncnc32)C1 [Compound 21] | 32.9 | 64.5 | 13 | – | – |
| C=CC(=O)N1CC[C@@H](n2nc(-c3ccc(Oc4cc(F)cc(OCc5cnc(C)nc5)c4)cc3)c3c(N)ncnc32)C1 [Compound 22] | 2.7 | 13.4 | 6 | – | – |
| C=CC(=O)N[C@H]1C[C@@H](n2nc(-c3ccc(Oc4cc(F)cc(OCc5cnc(C)nc5)c4)cc3)c3c(N)ncnc32)C1 [Compound 27] | 0.8 | 4.7 | 8 | >10 | > 600 |
| C/C=C/C(=O)N1CCC[C@@H]1Cn1nc(-c2ccc(Oc3cc(F)cc(OCc4cnc(C)nc4)c3)cc2)c2c(N)ncnc21 [Compound 3] | 12.8 | 45.3 | 129 | – | – |
| Cc1ncc(COc2cc(F)cc(Oc3ccc(-c4nn(C[C@H]5CCCN5C(=O)C5=CCCC5)c5ncnc(N)c45)cc3)c2)cn1 [Compound 2] | > 100 | > 100 | 119 | – | – |
| C#CC(=O)N1CCC[C@@H](n2nc(-c3ccc(Oc4cc(F)cc(OCc5cnc(C)nc5)c4)cc3)c3c(N)ncnc32)C1 [Compound 10] | 9.8 | 75.5 | 8 | – | – |
| CC#CC(=O)N1CC(Cn2nc(-c3ccc(Oc4cc(F)cc(OCc5cnc(C)nc5)c4)cc3)c3c(N)ncnc32)C1 [Compound 24] | 10.8 | 20.6 | 26 | – | – |
| C=CC(=O)N1CCC[C@@H]1Cn1nc(-c2ccc(Oc3cc(F)cc(OCc4cnc(C)nc4)c3)cc2)c2c(N)ncnc21 [Compound 14] | 2.5 | 13.8 | 25 | – | – |
| CC#CC(=O)N[C@H]1C[C@@H](n2nc(-c3ccc(Oc4cc(F)cc(OCc5cnc(C)nc5)c4)cc3)c3c(N)ncnc32)C1 [Compound 28] | 1.1 | 8.4 | 13 | – | – |
| C=C(C)C(=O)N1CCC[C@@H](n2nc(-c3ccc(Oc4cc(F)cc(OCc5cnc(C)nc5)c4)cc3)c3c(N)ncnc32)C1 [Compound 7] | 48.7 | > 100 | 16 | – | – |

— US20180179210A1, “Inhibitors of the TEC Kinase Enzyme Family” (Pharmascience Inc., priority 2015, published 2018)
